Reference: ChEMBL document CHEMBL3244141, “Synthesis and analgesic activity of some long-acting piperidinospiro derivatives of methadone” (1978)

tested on: Rattus norvegicus; assay: Analgesic activity in po dosed Sprague-Dawley rat assessed as inhibition of warm-water tail withdrawal reflex by measuring dose required to produce withdrawal latency >4 seconds measured every hour of 24 hrs relative to methadone; assay type: functional; details: not given

| Compound | Ratio |
| --- | --- |
| CCC(=O)C(CCN1CCC2(CCCc3ccccc32)CC1)(c1ccccc1)c1ccccc1.O=C(O)C(=O)O | 212 |
| CCC(OC(C)=O)C(CCN1CCC2(CCCc3ccccc32)CC1)(c1ccccc1)c1ccccc1.O=S(=O)(O)O (stereo unspecified) | 106 |
| CCC(O)C(CCN1CCC2(CCCc3ccccc32)CC1)(c1ccccc1)c1ccccc1 (racemic) | 106 |

species: Rattus norvegicus; assay: animal or person; assay type: functional; details: Sprague-Dawley, Tail, po, 24 h

| Compound | ED50 [mg/kg] |
| --- | --- |
| CCC(=O)C(CCN1CCC2(CCCc3ccccc32)CC1)(c1ccccc1)c1ccccc1.O=C(O)C(=O)O | 0.07 |
| CCC(OC(C)=O)C(CCN1CCC2(CCCc3ccccc32)CC1)(c1ccccc1)c1ccccc1.O=S(=O)(O)O (stereo unspecified) | 0.14 |
| CCC(O)C(CCN1CCC2(CCCc3ccccc32)CC1)(c1ccccc1)c1ccccc1 (racemic) | 0.14 |
